Here are results for 49 substances from patent US9464106B2, “Oligonucleotides useful for detecting and analyzing nucleic acids of interest” (Exiqon A/S, priority 2002, dated 2016).

l = locked nucleic acid (LNA); [5mC] = 5-methylcytosine; d = 2'-deoxy (DNA)

In the data set the test system is yeast HSP78 (YDR258C) sequence. Kind of data set: Duplex melting temperatures of HSP78 25-mer capture probes (UV spectrophotometer). The conditions noted are these: 25-mer capture probe duplex with complementary target; design PM = perfectly matched, MM = single mismatch; DNA, LNA_T (T) or LNA_TC (TC) substituted.
For “12680 (DNA ACCATCATCACCGAACTTTGTGTCG; DNA, backbone not given here) [compound 12680]”, the “Average duplex melting temp.” value is 63.6 °C.
Then “12681 (DNA CAATGATCGTGTAACGGAAATCAAC; DNA, backbone not given here) [compound 12681]”, with 59.3 °C.
Under “12682 (DNA TGGCCTAGGGAAACGGTCAGCTTAC; DNA, backbone not given here) [compound 12682]” stands 65.2 °C.
Then “12683 (DNA TTGGAAACATCGCGGTGCGCTTTTT; DNA, backbone not given here) [compound 12683]”, with 61.5 °C.
Turning to “12684 (DNA GAAACATCGGGGAGCGCTTTTTCAA; DNA, backbone not given here) [compound 12684]”, the “Average duplex melting temp.” value stood at 63.8 °C.
Consider “12685 (DNA GACAGCCTCAGTAAATTGGCCACCA; DNA, backbone not given here) [compound 12685]”, for which the “Average duplex melting temp.” value is 64.8 °C.
Under “12686 (DNA CCGATTAAACGACAGACAGTATGCT; DNA, backbone not given here) [compound 12686]” stands 57.1 °C; under “12687 (DNA ATCAAATAGGAAATCAGCTAAAGCC; DNA, backbone not given here) [compound 12687]”, 54.3 °C; under “12688 (DNA GACCTAAGAACAAAAAGCTGGCAAT; DNA, backbone not given here) [compound 12688]”, 58.2 °C.
As for “12689 (DNA AAATAGCAGCAAAGGCCTCGTCTTG; DNA, backbone not given here) [compound 12689]”, the “Average duplex melting temp.” value turned out to be 64 °C.
Then “12690 (DNA ATAGCAGCAATGCCCTCGTCTTGGC; DNA, backbone not given here) [compound 12690]”, with 62.9 °C; and “12691 (DNA GCAATGGCCTCGACTTGGCCAACGA; DNA, backbone not given here) [compound 12691]”, with 68.5 °C; and “12692 (DNA GATGAACTCAGGAGGATAGGATCTT; DNA, backbone not given here) [compound 12692]”, with 58.2 °C.
On to “12693 (DNA TCAGTTAGCCAAACCTTCGCTTCAT; DNA, backbone not given here) [compound 12693]”, for which the “Average duplex melting temp.” value was found to be 61.4 °C.
As to “12694 (DNA GTTGCCATGGAGATCAAAATCTGTC; DNA, backbone not given here) [compound 12694]”, the “Average duplex melting temp.” value was found to be 60 °C.
Take “12695 (DNA AGACGTACAGCAACAGAAATAGCAG; DNA, backbone not given here) [compound 12695]”: the “Average duplex melting temp.” value worked out at 61.2 °C.
Take “12696 (DNA TTTGGTAGCACGTCAAGCTTAGTAT; DNA, backbone not given here) [compound 12696]”: the “Average duplex melting temp.” value is 59.2 °C.
“12697 (DNA ATAAAGCTGGCATTAGGTCTCTTTT; DNA, backbone not given here) [compound 12697]”: the “Average duplex melting temp.” value came to 58.4 °C.
On to “12698 (DNA TTTTTCGGCCAATCGATCTTGAATT; DNA, backbone not given here) [compound 12698]”, for which the “Average duplex melting temp.” value was found to be 58.8 °C.
Regarding “12699 (DNA CACTCTAACAGTATCGCCGTTTCTA; DNA, backbone not given here) [compound 12699]”, the “Average duplex melting temp.” value amounted to 61.1 °C.
Turning to “12700 (DNA TCAATGGCCTTGGACCATATAATTG; DNA, backbone not given here) [compound 12700]”, the “Average duplex melting temp.” value was determined as 59.5 °C.
Then “12701 (DNA AAAACGACAGCAAAAGGCTTTCTTC; DNA, backbone not given here) [compound 12701]”, with 58.8 °C.
“12702 (DNA ATTGACCTCAAATCTTTCTTGGATA; DNA, backbone not given here) [compound 12702]”: the “Average duplex melting temp.” value amounted to 54.5 °C.
Under “12703 (DNA CCCAACTTTGTGACGTTTAATAAAA; DNA, backbone not given here) [compound 12703]” stands 56.2 °C; under “12704 (DNA ACCATCATCACCGAACTTTGTGTCG; DNA at ACG, LNA at T, backbone not given here) [compound 12704]”, 74 °C; under “12705 (DNA CAATGATCGTGTAACGGAAATCAAC; sugars from the 5' end dddlddlddlddddddddddldddd, backbone not given here) [compound 12705]”, 65.2 °C.
“12706 (DNA TGGCCTAGGGAAACGGTCAGCTTAC; DNA at ACG, LNA at T, backbone not given here) [compound 12706]”: the “Average duplex melting temp.” value was 71.6 °C.
“12707 (DNA TTGGAAACATCGCGGTGCGCTTTTT; sugars from the 5' end lldddddddldddddlddddlllld, backbone not given here) [compound 12707]”: the “Average duplex melting temp.” value was 68.6 °C.
Under “12708 (DNA GAAACATCGGGGAGCGCTTTTTCAA; sugars from the 5' end d6 l1 d10 l5 d3, backbone not given here) [compound 12708]” stands 69.9 °C; under “12709 (DNA GACAGCCTCAGTAAATTGGCCACCA; sugars from the 5' end d7 l1 d7 l2 d8, backbone not given here) [compound 12709]”, 68.8 °C; under “12710 (DNA CCGATTAAACGACAGACAGTATGCT; sugars from the 5' end ddddlldddddddddddddldlddd, backbone not given here) [compound 12710]”, 63.5 °C.
For “12711 (DNA ATCAAATAGGAAATCAGCTAAAGCC; sugars from the 5' end dlddddldddddddddddldddddd, backbone not given here) [compound 12711]”, the “Average duplex melting temp.” value was 58.1 °C.
In the case of “12712 (DNA GACCTAAGAACAAAAAGCTGGCAAT; sugars from the 5' end d4 l1 d13 l1 d6, backbone not given here) [compound 12712]”, the “Average duplex melting temp.” value is 61.1 °C.
With “12713 (DNA AAATAGCAGCAAAGGCCTCGTCTTG; DNA at ACG, LNA at T, backbone not given here) [compound 12713]”, the “Average duplex melting temp.” value is 70.4 °C.
Under “12714 (DNA ATAGCAGCAATGCCCTCGTCTTGGC; DNA at ACG, LNA at T, backbone not given here) [compound 12714]” stands 71.3 °C.
As to “12715 (DNA GCAATGGCCTCGACTTGGCCAACGA; DNA at ACG, LNA at T, backbone not given here) [compound 12715]”, the “Average duplex melting temp.” value came to 73.7 °C.
Then “12716 (DNA GATGAACTCAGGAGGATAGGATCTT; sugars from the 5' end ddlddddlddddddddlddddldld, backbone not given here) [compound 12716]”, with 64.9 °C.
Take “12717 (DNA TCAGTTAGCCAAACCTTCGCTTCAT; sugars from the 5' end ldddlldddddddddlldddllddd, backbone not given here) [compound 12717]”: the “Average duplex melting temp.” value stood at 69.4 °C.
Then “12718 (DNA GTTGCCATGGAGATCAAAATCTGTC; sugars from the 5' end dllddddldddddddddddldldld, backbone not given here) [compound 12718]”, with 69.2 °C; and “12719 (DNA AGACGTACAGCAACAGAAATAGCAG; sugars from the 5' end d5 l1 d13 l1 d5, backbone not given here) [compound 12719]”, with 65 °C.
Then “12720 (DNA TTTGGTAGCACGTCAAGCTTAGTAT; sugars from the 5' end lllddlddddddddddddllddldd, backbone not given here) [compound 12720]”, with 68.6 °C; and “12721 (DNA ATAAAGCTGGCAAAAGGTCTCTTTT; sugars from the 5' end dldddddldddddddddldldllld, backbone not given here) [compound 12721]”, with 67.2 °C.
Then “12722 (DNA TTTTTCGGCCAATCGATCTTGAATT; sugars from the 5' end ldllldddddddddddldlldddld, backbone not given here) [compound 12722]”, with 65.9 °C; and “12723 (DNA CACTCTAACAGTATCGCCGTTTCTA; sugars from the 5' end dddldldddddddddddddllldld, backbone not given here) [compound 12723]”, with 69.7 °C; and “12724 (DNA TCAATGGCCTTGGACCATATAATTG; DNA at ACG, LNA at T, backbone not given here) [compound 12724]”, with 69.7 °C.
As for “12725 (DNA AAAACGACAGCAAAAGGCTTTCTTC; sugars from the 5' end d18 l3 d1 l2 d1, backbone not given here) [compound 12725]”, the “Average duplex melting temp.” value turned out to be 65.9 °C.
Then “12726 (DNA ATTGACCTCAAATCTTTCTTGGATA; sugars from the 5' end dllddddlddddddllldlldddld, backbone not given here) [compound 12726]”, with 65.1 °C; and “12727 (DNA CCCAACTTTGTGACGTTTAATAAAA; DNA at ACG, LNA at T, backbone not given here) [compound 12727]”, with 66.5 °C; and “12728 (DNA ACCATCATCACCCAACCTTGTGTCG; sugars from the 5' end dlddlddldddddddddlddlddld, [5mC] at 2, 24, backbone not given here) [compound 12728]”, with 70.2 °C.
